This passage reports GI50 and TGI results from PubChem BioAssay (NCI).

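All cell lines were grown in 96-well plates and treated with compound for 48 hours. GI50 = concentration required for 50% inhibition of growth. Definition used: TGI = concentration required for complete inhibition of growth.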 Bounds are passed on as bounds.

Some test systems named below: 786-0 renal; SK-MEL-28 melanoma; SF-295 CNS; CCRF-CEM leukemia; UACC-257 melanoma; HCT-15 colon; SK-MEL-2 melanoma; M14 melanoma; NCI-H226 lung.
Common to all, as to assay: NCI anticancer screen, dose series, 48 h

In the case of `N.N.N.N.N.N.O=N[O-].[Br-].[Co+3].[Co+3].[OH3+].[OH3+]`, the GI50 in the experiment on 786-0 renal, with SK-MEL-28 melanoma, in the experiment with SF-295 CNS, in the experiment with CCRF-CEM leukemia, with UACC-257 melanoma and in the experiment on HCT-15 colon was more than 100 µM throughout. The GI50 in the experiment on SK-MEL-2 melanoma, with M14 melanoma and in the experiment with NCI-H226 lung was more than 100 µM in each case. The TGI in the experiment on 786-0 renal, in the experiment on SK-MEL-28 melanoma, in the experiment on SF-295 CNS, in the experiment on CCRF-CEM leukemia, with UACC-257 melanoma and in the experiment on HCT-15 colon was more than 100 µM in each case. The TGI in the experiment on SK-MEL-2 melanoma, in the experiment on M14 melanoma and with NCI-H226 lung was more than 100 µM in each case.
As to `Cc1nn(-c2ccccc2)c(-c2ccccc2[N+](=O)[O-])c1CC#N`, the TGI with 786-0 renal, in the experiment with SK-MEL-28 melanoma, with SF-295 CNS, with CCRF-CEM leukemia, in the experiment on UACC-257 melanoma and with HCT-15 colon was more than 100 µM each time. In addition, the TGI with SK-MEL-2 melanoma and in the experiment with M14 melanoma was more than 100 µM each time.
On to `OC12CC/C(=N/OCc3ccccc3)CC1c1ccccc12` (centres undefined), for which the TGI in the experiment with 786-0 renal, with SK-MEL-28 melanoma, in the experiment on SF-295 CNS, in the experiment on CCRF-CEM leukemia, in the experiment with UACC-257 melanoma and in the experiment with HCT-15 colon was more than 100 µM each time. Further, the TGI in the experiment on SK-MEL-2 melanoma, in the experiment on M14 melanoma and with NCI-H226 lung was more than 100 µM in each case.
Take `O=[N+]([O-])c1nccn1COCCBr`: the TGI with 786-0 renal, in the experiment on SK-MEL-28 melanoma, in the experiment with SF-295 CNS, in the experiment with CCRF-CEM leukemia, with UACC-257 melanoma and in the experiment with HCT-15 colon was more than 100 µM throughout. Moreover, the TGI in the experiment on SK-MEL-2 melanoma, with M14 melanoma and in the experiment with NCI-H226 lung was more than 100 µM each time.
With `COc1cc(Br)c(C=Nc2cccc3ccc(OS(=O)(=O)c4cccc([N+](=O)[O-])c4)cc23)cc1OC`, the TGI is more than 100 µM in the experiment with 786-0 renal; more than 100 µM in the experiment with SK-MEL-28 melanoma; 60.4 µM in the experiment with SF-295 CNS; more than 100 µM in the experiment with CCRF-CEM leukemia; more than 100 µM with UACC-257 melanoma; more than 100 µM in the experiment on HCT-15 colon. In addition, the results for the TGI in the experiment on SK-MEL-2 melanoma and in the experiment with NCI-H226 lung were more than 100 µM and 84.1 µM, respectively.
Consider `CN1C(=O)C(Cl)(C(Cl)(Cl)S(=O)(=O)O)C(=O)c2ccccc21` (centres undefined), for which the TGI with 786-0 renal, with SK-MEL-28 melanoma, in the experiment with SF-295 CNS, with CCRF-CEM leukemia, with UACC-257 melanoma and with M14 melanoma was more than 100 µM in each case. Moreover, the TGI in the experiment on NCI-H226 lung was more than 100 µM.
As for `CC(=O)OC1[C@H]2c3cc4c(cc3CN3CCC(=C[C@@H]1O)C23)OCO4` (some centres undefined), the TGI in the experiment on 786-0 renal, with SK-MEL-28 melanoma, in the experiment on SF-295 CNS, in the experiment with CCRF-CEM leukemia, in the experiment with UACC-257 melanoma and in the experiment with HCT-15 colon was more than 100 µM throughout. Further, the TGI with M14 melanoma and with NCI-H226 lung was more than 100 µM throughout.
For `Cc1ccc(S(=O)(=O)N=Nc2c(O)[nH]c3c(Cl)cc(Cl)cc23)cc1`, the TGI with 786-0 renal, in the experiment on SK-MEL-28 melanoma, with SF-295 CNS, in the experiment with CCRF-CEM leukemia, in the experiment on UACC-257 melanoma and with HCT-15 colon was more than 100 µM throughout. Moreover, the TGI in the experiment with SK-MEL-2 melanoma, in the experiment on M14 melanoma and in the experiment on NCI-H226 lung was more than 100 µM each time.
For the molecule `BrC1(Br)C2/C=C\CCCCC21` (centres undefined), the TGI in the experiment with 786-0 renal, in the experiment with SK-MEL-28 melanoma, in the experiment with SF-295 CNS, in the experiment with CCRF-CEM leukemia, in the experiment on UACC-257 melanoma and in the experiment on SK-MEL-2 melanoma was more than 100 µM throughout. For the same molecule, the TGI in the experiment on NCI-H226 lung was more than 100 µM.
As for `C=C(C=O)CCCC(C)[C@@H]1CCC23CC12CCC1[C@@]2(C)CCC(OC(C)=O)C(C)(C)C2CC(OC2OC(COC(C)=O)C(O)C(O)C2O)[C@]13C` (some centres undefined), the TGI stood at 13.2 µM with 786-0 renal; 1.77 µM with SK-MEL-28 melanoma; 11.6 µM in the experiment with SF-295 CNS; 5 µM with CCRF-CEM leukemia; 11.6 µM in the experiment on UACC-257 melanoma; 7.5 µM in the experiment with HCT-15 colon. Besides, the TGI is 13.9 µM in the experiment with SK-MEL-2 melanoma, 4.57 µM with M14 melanoma and 12.8 µM with NCI-H226 lung.
For the molecule `C[N+]1(C)C/C(=C\c2ccncc2)C(=O)/C(=C/c2ccncc2)C1`, the TGI in the experiment with 786-0 renal, in the experiment on SK-MEL-28 melanoma, in the experiment on SF-295 CNS, in the experiment on CCRF-CEM leukemia, with UACC-257 melanoma and in the experiment with HCT-15 colon was more than 100 µM in each case. Also, in the experiment with M14 melanoma, the TGI is more than 100 µM.
With `S=c1nc(-c2cccnc2)[nH][nH]1`, the TGI in the experiment on 786-0 renal, with SK-MEL-28 melanoma, with SF-295 CNS, in the experiment on CCRF-CEM leukemia, with UACC-257 melanoma and in the experiment on HCT-15 colon was more than 100 µM each time. Further, the TGI with SK-MEL-2 melanoma and in the experiment on M14 melanoma was more than 100 µM throughout.
With `CCOc1ccccc1NC(=O)CCc1nc(=S)[nH][nH]1`, the TGI in the experiment on 786-0 renal, with SK-MEL-28 melanoma, with SF-295 CNS, in the experiment with CCRF-CEM leukemia, with UACC-257 melanoma and in the experiment on HCT-15 colon was more than 100 µM in each case. The TGI with SK-MEL-2 melanoma, in the experiment on M14 melanoma and in the experiment on NCI-H226 lung was more than 100 µM each time.
For `COC(=O)c1nc(N)[nH]c(=O)c1CCCCCc1c(C(=O)OC)nc(N)[nH]c1=O`, the TGI in the experiment with 786-0 renal, with SK-MEL-28 melanoma, in the experiment on SF-295 CNS, in the experiment with CCRF-CEM leukemia, in the experiment with UACC-257 melanoma and in the experiment with HCT-15 colon was more than 50 µM throughout. Moreover, the TGI with SK-MEL-2 melanoma and in the experiment with M14 melanoma was more than 50 µM in each case.
